{
  "source": "paper PMC10021052",
  "about": "“Novel multivalent S100A8 inhibitory peptides attenuate tumor progression and metastasis by inhibiting the TLR4-dependent pathway” (Cancer Gene Therapy, 2023)",
  "key": {"[1]": {"test_system": "human TLR4/MD-2 complex", "assay": "ELISA, TLR4/MD-2 binding to immobilized S100A8-derived peptides (overlapping peptides, alanine scan)", "conditions": "ELISA, peptide immobilized, TLR4/MD-2 2 µg/ml", "experimental": "(§1) S100A8 recombinant protein was purified as previously described. These proteins were immobilized on Maxisorp plates (Thermo Fisher Scientific, Waltham, MA, USA), followed by blocking with protein-free blocking buffer (Thermo Fisher Scientific). TLR4/MD-2 recombinant proteins with various concentrations of candidate peptides were then added to the indicated S100A8-immobilized ELISA plates for 2 h. The plates were washed, incubated with anti-TLR4 antibody, and HRP-conjugated secondary antibody, followed by the addition of substrate. The reaction was stopped by addition a 2N H2SO4 solution. Absorbance OD450/OD650 was measured using a microplate reader (Thermo Fisher Scientific). Maxisorp plates were also used for peptide coating. After blocking with protein-free blocking buffer, the coated plates were washed, and TLR4/MD-2 recombinant protein (2 µg/ml) was added to each well. The plates were incubated with a TLR4 antibody followed by horseradish peroxidase (HRP)-labeled anti-rabbit IgG. For detection of IL8 and VEGF in culture supernatants, SW480 cells were pretreated with the indicated peptides, and followed by stimulation with S100A8 for 24 h. The amount of interleukin-8 (IL-8) or VEGF in the supernatants were analyzed by ELISA kits (R&D Systems, Mineapolis, MN) according to the manufacturer’s instructions.\n(§2) Fig. 2 Identification of S100A8 binding sites to human TLR4/MD-2. […] TLR4/MD-2 recombinant proteins were immobilized to the ELISA plate. After blocking, a full length or deletion mutant of S100A8 was added to the plate. The more detailed methods are described in Materials and Methods. […] B A series of overlapping S100A8 synthetic peptides. The TLR4/MD-2 recombinant proteins were added to each well of peptide immobilized plates. The affinity to TLR4/MD-2 was determined. Data are shown as mean ± SD. C The competitive activity was determined using ELISA. Data are shown as mean ± SD. D The TLR4/MD-2 was mixed with S100A8 with/without the indicated peptides, and immunoprecipitated using an anti-TLR4 antibody. TLR4 or S100A8 was visualized. Similar results were obtained in three independent experiments. […] Total RNAs from SW480 cells with/without treatment of the peptide candidates were extracted and qPCR analysis was performed using relevant primer sets and SYBR green. Relative expression levels were compared. […] TEXT PRINTED IN THE PICTURE: (A) Full length: TLR4/MD-2 binding: + | (A) S100A8-ΔC: TLR4/MD-2 binding: − | (A) S100A8-N: TLR4/MD-2 binding: −\nFig. 3 Identification of high affinity peptides to TLR4/MD-2 using alanine scanning based on the peptide #3 amino acid sequences. A Lists of peptides used for alanine scanning. […] Similar results were obtained in three independent experiments."}, "[2]": {"test_system": "SW480 cells", "assay": "ELISA, IL-8 and VEGF secretion of SW480 cells", "format": "cell-based, human", "conditions": "peptide pretreatment, S100A8 24 h, supernatant ELISA, *P < 0.05 vs S100A8", "experimental": "as §1"}, "[3]": {"test_system": "SW480 cells", "assay": "qPCR, S100A8-mediated IL-8 and VEGF mRNA induction in SW480 cells", "format": "cell-based, human", "experimental": "SW480 cells were treated with S100A8 in Dulbecco’s Modified Eagle Medium/HamF12 supplemented with 0.1% bovine serum albumin for cytokine induction. Total RNA was extracted using the RNeasy Mini Plus (Qiagen, Hilden, Germany). Complementary DNA was synthesized using the PrimeScript 1st Strand Synthesis kit (Takara Bio, Japan). Quantitative PCR (qPCR) analysis was performed using the PowerUp^TM SYBR^TM Green mixture (Thermo Fisher Scientific) and the StepOnePlus Real Time PCR System (Thermo Fisher Scientific). Gene expression levels were calculated from Ct values, and the relationship between the Ct value and the logarithm of the copy number of a target gene was confirmed to be on a linear line using the corresponding isolated DNA and its serial dilutions as a standard. Thus, the gene expression levels of IL-8 and VEGF were normalized against that of β-actin in each sample. The following primers were used; β-actin, 5′-[…]-3′ and 5′-[…]-3′; IL-8, 5′-[…]-3′ and 5′-[…]-3′; VEGF, 5′-[…]-3′ and 5′-[…]-3′.\nas §2\n(§3) Fig. 4 Improvement of competitive inhibition activity by divalent peptide3A5. A The binding capacity was measured at the indicated concentration using an ELISA-based assay. Similar results were obtained in three independent experiments. B SW480 cells were pretreated with 2.5 µM of divalent peptide3A5, and then stimulated with human S100A8 recombinant protein. After 30 min, cell lysates were subjected to western blotting using the indicated antibody. The divalent peptide#3 or peptide3A5 reduced the expression of S100A8-mediated IL-8 (C) and VEGF (D) induction. Total RNAs from SW480 cells with/without treatment of the peptide candidates were extracted and qPCR analysis was performed using relevant primer sets and SYBR green. Relative expression levels were compared. Peptide #3 suppresses S100A8-mediated IL-8(E) and VEGF (F) secretion in SW480 cells."}, "[4]": {"test_system": "S100A8-TLR4/MD-2 complex", "assay": "Competitive inhibition of S100A8-TLR4/MD-2 binding (ELISA, S100A8 immobilized; also immunoprecipitation)", "parameters": "species or system human", "conditions": "ELISA (Fig. 2C), immunoprecipitation with anti-TLR4 antibody (Fig. 2D)", "experimental": "as §1, §2, §3"}, "[5]": {"test_system": "SW480 cells", "assay": "S100A8-mediated cell migration of SW480 cells", "format": "cell-based, human", "conditions": "Supplementary Fig. 1B"}, "[6]": {"test_system": "S100A8-mediated cell migration", "conditions": "ref [8]; cited from earlier work", "source_text": "VEGF is another NFκB-mediated re ..."}, "[7]": {"test_system": "CD8+ cells", "conditions": "LLC-tumor-bearing mice; ref [8]; cited from earlier work"}, "[8]": {"test_system": "TLR4", "conditions": "ref [33], [34]; cited from earlier work", "source_text": "The difference between TAK-242 and our inhibitory peptides is the target molecules. […] Qin et al. previously generated two peptibodies, peptide-Fc fusion proteins, targeting mouse MDSCs using a competitive peptide phage display platform. Peptibodies recognize the cell surface of mouse MDSCs. Although peptibodies also recognize S100A9, mouse MDSCs ar ..."}, "[9]": {"test_system": "SW480-transplanted xenograft", "assay": "Tumor growth in SW480-transplanted xenograft model", "format": "in vivo, Balb nu/nu mice", "conditions": "SW480 xenograft, various concentrations every 3 days, *P < 0.05 vs control"}, "[10]": {"test_system": "tumor cells and macrophages", "assay": "Cytokine/chemokine induction in tumor cells and macrophages", "format": "cell-based", "conditions": "possible mechanism scheme, Fig. 7I"}, "[11]": {"target": "T1, TLR4/MD-2 complex (Homo sapiens, UniProt O00206+Q9Y6Y9)", "T1 construct": "TLR4/MD-2 recombinant protein (2 µg/ml) was added to each well", "T1 sequence (O00206 24-631 limits assumed)": "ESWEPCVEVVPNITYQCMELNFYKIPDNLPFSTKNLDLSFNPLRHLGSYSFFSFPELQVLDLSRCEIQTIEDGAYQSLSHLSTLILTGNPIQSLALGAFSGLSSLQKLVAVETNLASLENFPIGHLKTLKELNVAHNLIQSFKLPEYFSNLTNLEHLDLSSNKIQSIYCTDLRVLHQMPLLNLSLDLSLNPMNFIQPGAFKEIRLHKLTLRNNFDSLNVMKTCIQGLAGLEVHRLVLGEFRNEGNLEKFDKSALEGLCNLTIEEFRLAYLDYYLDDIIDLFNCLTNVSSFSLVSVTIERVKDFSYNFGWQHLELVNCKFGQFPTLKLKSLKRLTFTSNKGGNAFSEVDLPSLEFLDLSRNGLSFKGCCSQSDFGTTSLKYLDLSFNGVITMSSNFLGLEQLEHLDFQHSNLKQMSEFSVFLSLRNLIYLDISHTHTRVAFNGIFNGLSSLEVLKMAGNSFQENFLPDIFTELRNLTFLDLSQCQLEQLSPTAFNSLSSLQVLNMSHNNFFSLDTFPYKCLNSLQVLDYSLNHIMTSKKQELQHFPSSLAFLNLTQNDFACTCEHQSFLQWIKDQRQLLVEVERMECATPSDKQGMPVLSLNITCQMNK", "T1 sequence (Q9Y6Y9 17-160 partner limits assumed)": "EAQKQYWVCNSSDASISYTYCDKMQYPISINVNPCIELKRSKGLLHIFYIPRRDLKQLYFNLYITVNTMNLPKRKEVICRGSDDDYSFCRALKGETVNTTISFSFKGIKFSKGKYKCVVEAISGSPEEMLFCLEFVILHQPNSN", "assay": "TLR4/MD-2 binding to immobilized tetravalent ILVIK (ELISA)", "conditions": "various TLR4/MD-2 concentrations, one representative of three experiments (Fig. 7F)", "experimental": "as §1, with “For detection of IL8 and VEGF in culture supernatants, SW480 cells were pretreated with the indicated peptides, and followed by stimulation with S100A8 for 24 h.” left out\nFig. 7 Isolation of multivalent S100A8 inhibitory peptides using divalent peptide libraries based on the sequences of peptide3A5. […] The binding affinities to TLR4/MD-2 complex were determined using an ELISA-based assay. […]"}},
  "note": "Positions of bridges follow the written chain, without caps; N, C: chain ends. Non-standard residues stand in square brackets, D forms with d. Residues, ends and D or L forms follow the SMILES beside them. Chains are numbered I, II in the order given. ξ: configuration not given here. ξK = NCCCCC(N)C(=O)O; Ahx = NCCCCCC(=O)O",
  "data": [
    {"molecule": "FQEFLILVIK [Peptide #3, S100A8-derived peptide […] from the carboxyl terminal region]", "values": [
      {"measurement": "TLR4/MD-2 binding of peptide", "setting": "[1]", "value": "most strongly bound to the TLR4/MD-2 complex among a series of S100A8-derived peptides"},
      {"measurement": "TLR4/MD-2 binding of peptide", "setting": "[1]; listed as peptide #3", "value": "could bind to TLR4/MD-2"},
      {"measurement": "S100A8-mediated IL-8 secretion", "setting": "[2]", "value": "suppresses S100A8-mediated IL-8 secretion"},
      {"measurement": "S100A8-mediated VEGF secretion", "setting": "[2]", "value": "suppresses"},
      {"measurement": "S100A8-mediated IL-8 secretion", "setting": "[2]; listed as peptide#3", "value": "suppressed"},
      {"measurement": "IL-8 induction by peptide alone (agonism)", "setting": "[3]; no S100A8", "value": "failed to induce IL-8 production"},
      {"measurement": "S100A8-mediated VEGF induction (mRNA)", "setting": "[3]; qPCR, normalized to β-actin", "value": "suppressed S100A8-induced VEGF induction"},
      {"measurement": "S100A8-mediated IL-8 induction (mRNA)", "setting": "[3]; qPCR, normalized to β-actin, *P < 0.05 vs S100A8", "value": "reduces the expression of S100A8-mediated IL-8 induction"},
      {"measurement": "competition for S100A8-TLR4/MD-2 binding", "setting": "[4]", "value": "competed for binding between S100A8 and the TLR4/MD-2 complex"},
      {"measurement": "S100A8-mediated cell migration", "setting": "[5]", "value": "significantly inhibited"}
    ]},
    {"molecule": "CCCCCC/C=C\\CCCCCCCCCC(=O)N[C@H]1[C@H](OC[C@H]2O[C@H](OP(=O)(O)O)[C@H](NC(=O)CC(=O)CCCCCCCCCCC)[C@@H](OCCCCCCCCCC)[C@@H]2O)O[C@H](COC)[C@@H](OP(=O)(O)O)[C@@H]1OCC[C@@H](CCCCCCC)OC", "note": "[Eritoran, reference compound]", "values": [
      {"measurement": "S100A8-mediated cell migration, Eritoran", "setting": "[6]", "value": "inhibited S100A8-mediated cell migration"},
      {"measurement": "intratumoral infiltration of CD8+ cells, Eritoran", "setting": "[7]", "value": "increased intratumoral infiltration of CD8^+ cells"}
    ]},
    {"molecule": "CCOC(=O)C1=CCCC[C@H]1S(=O)(=O)Nc1ccc(F)cc1Cl", "note": "[TAK-242, ethyl (6R)-6-[N-(2-Chloro-4-fluorophenyl)sulfamoyl]cyclohex-1-ene-1-carboxylate]", "values": [
      {"measurement": "TLR4 inhibition, site", "setting": "[8]", "value": "inhibits TLR4 at intracellular domains"}
    ]},
    {"molecule": "CC[C@H](C)[C@H](NC(C)=O)C(=O)N[C@@H](CC(C)C)C(=O)N[C@H](C(=O)N[C@H](C(=O)N[C@@H](CCCCN)C(=O)NCCCCCC(=O)NCCCCC(NC(=O)CCCCCNC(=O)[C@H](CCCCN)NC(=O)[C@@H](NC(=O)[C@@H](NC(=O)[C@H](CC(C)C)NC(=O)[C@@H](NC(C)=O)[C@@H](C)CC)C(C)C)[C@@H](C)CC)C(=O)NCCCCC(NC(=O)C(CCCCNC(=O)CCCCCNC(=O)[C@H](CCCCN)NC(=O)[C@@H](NC(=O)[C@@H](NC(=O)[C@H](CC(C)C)NC(=O)[C@@H](NC(C)=O)[C@@H](C)CC)C(C)C)[C@@H](C)CC)NC(=O)CCCCCNC(=O)[C@H](CCCCN)NC(=O)[C@@H](NC(=O)[C@@H](NC(=O)[C@H](CC(C)C)NC(=O)[C@@H](NC(C)=O)[C@@H](C)CC)C(C)C)[C@@H](C)CC)C(N)=O)[C@@H](C)CC)C(C)C", "note": "(some centres unmarked) [Tetravalent ILVIK] (I: Ac-ILVIK[Ahx][ξK][ξK]-NH2 / II: Ac-ILVIK[Ahx][ξK] / III: Ac-ILVIK[Ahx] / IV: Ac-ILVIK[Ahx]; amide I:7-IV:C, I:8-II:C, II:7-III:C)", "values": [
      {"measurement": "tumor growth, multivalent ILVIK", "setting": "[9]", "value": "inhibits tumor growth"},
      {"measurement": "tumor growth, multivalent ILVIK", "setting": "[9]; listed as tetravalent ILVIK", "value": "more effectively inhibited tumor progression"},
      {"measurement": "induction of cytokines/chemokines", "setting": "[10]", "value": "suppress the induction of cytokines/chemokines in both tumor cells and macrophages"},
      {"measurement": "Kd", "setting": "[11]", "value": "4.58 to 8.78", "unit": "nM"}
    ]}
  ]
}
